Data on one compound can be found in patent US9241964B2, “Composition from Sphaeranthus indicus and Garcinia mangostana for the control of metabolic syndrome” (LAILA NUTRACEUTICALS, priority 2009, dated 2016).

Converted amounts (≈) assume the structure as drawn.

For test [1], the system named is Matrix Metalloproteinase-3 (MMP-3). Briefly: Inhibition of MMP-3 production in IL-1β induced A549 cells (ELISA). Format: cell-based. The settings on record: 10 ng/mL IL-1β induced A549 human lung tumor cells, 24 h, supernatant ELISA. On the procedure: A549 cells were induced with 10 ng/ml human IL-1β in absence or presence of different concentrations of LI/DD-II/054A/01 for 24 h as indicated. Secreted MMP-3 concentration in the cell free culture supernatants was measured using MMP-3 ELISA Development Kit (R&D System, Minneapolis, Minn., USA). The MMP-3 concentration in culture supernatants was estimated quantitatively from the standard curve generated using known concentrations of MMP-3. Percentage of MMP-3 inhibition at each concentration of test compound was calculated from the formula: {(Conc. of MMP-3 in IL-1β induced−Conc. of MMP-3 in the test well)×100}÷Conc. of MMP-3 in IL-1β induced wells.
MMP-3 was evaluated in Interleukin-1β induced human lung tumor cell line A549. Briefly, the cells were cultured in DMEM with 2 mM Glutamine, 100 U/mL penicillin, […] streptomycin and 10% fetal bovine serum (Hyclone, Logan, Utah). Five thousand cells per well were seeded into a 96-well cell culture plate (Corning, USA) one day before the experiment. The culture media was replaced with fresh DMEM containing 10% fetal bovine serum. […] The MMP-3 concentration in culture supernatant was estimated quantitatively by interpolating the optical densities into the standard curve generated from known concentrations of MMP-3. […]

The subject of another test is perilipin. Briefly: Immunoblot of perilipin in 3T3-L1 adipocytes. Type of test: cell-based, mouse. The following applies: immunoblot normalized with actin. The text has this: The inventors have then evaluated the modulation of metabolic biomarkers those are primarily responsible for the adipogenesis processes, insulin resistance in type 2 diabetes, obesity, metabolic syndrome and other metabolic disorders such as Peroxisome proliferator-activated receptor gamma (PPARγ), CD36, adipocyte fatty acid binding protein 4 (FABP4 or aP2), Perilipin, and beta-3 Adrenergic Receptor (β3AR) during adipogenesis process in 3T3-L1 adipocytes by ethyl actate extract (LI/DD-II/054A/01) of Sphaeranthus indicus and 7-hydroxyfrullanolide (LI054A01) using an immunoblot assay. […] The protein extracts were evaluated by immunoblot assay, and the immuno-reactive bands were developed with West-pico chemiluminescent substrate and the blot images were captured in a Kodak Image Station, normalized with expression of actin.
Experimental protocol: Mouse pre-adipocyte 3T3-L1 cells are maintained in Dulbecco's Modified Eagles Medium (DMEM) supplemented with 2 mM glutamine, 4.5 g/L glucose and 10% fetal bovine serum. […] Protein content was measured in Bradford method by using Coomassie blue dye and cell lysates were stored in aliquots at −80° C. until further use. […]
Inhibition of protein expression of biomarker molecules adipocytes in presence or absence of Sphaeranthus indicus extract LI/DD-II/054A/01 and 7-hydroxyfrullanolide (LI054A01) was evaluated in immunoblot assay. […]
Background: In western blotting, separated proteins are transferred to a membrane and probed.

For `C=C1C(=O)O[C@H]2C3=C(C)CCC[C@]3(C)CC[C@@]12O` [LI054A01, 7-α-hydroxy-4,11(13)-eudesmadien-12,6-olide], the “IC50 against MMP-3” value in test [1] stood at 0.075 µg/mL (≈ 0.302 µM). Further, the perilipin protein level entry in the test on perilipin was “potently ameliorated”.
